These results are taken from patent US12503473B2, “Triazolopyrimidine compounds and their use in treating cancer” (Dizal (Jiangsu) Pharmaceutical Co., Ltd., priority 2018, dated 2025).

In this test the target is T1, MCT4 (Homo sapiens, UniProt O15427).
T1 sequence (O15427 1-465): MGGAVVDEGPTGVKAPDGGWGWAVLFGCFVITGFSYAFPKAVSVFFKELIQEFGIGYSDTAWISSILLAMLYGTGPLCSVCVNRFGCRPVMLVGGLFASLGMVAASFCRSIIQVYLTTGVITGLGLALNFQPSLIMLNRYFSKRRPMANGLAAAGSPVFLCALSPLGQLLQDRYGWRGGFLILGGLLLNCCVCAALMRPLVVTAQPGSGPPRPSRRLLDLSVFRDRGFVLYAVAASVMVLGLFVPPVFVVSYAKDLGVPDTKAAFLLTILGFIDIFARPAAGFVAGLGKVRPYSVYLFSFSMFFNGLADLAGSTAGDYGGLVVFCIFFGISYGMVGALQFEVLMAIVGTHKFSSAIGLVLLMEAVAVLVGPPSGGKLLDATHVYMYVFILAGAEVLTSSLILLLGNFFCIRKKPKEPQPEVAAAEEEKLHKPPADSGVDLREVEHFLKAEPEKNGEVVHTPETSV
Put plainly: Assay (a): lactate efflux from SK-Br-3 cells (lactate in media, 4 h). It counts as cell-based. The arrangement: a natively glycolytic human breast adenocarcinoma line predominantly expressing MCT4; host or cells: SK-Br-3. Conditions: mean of at least three repeats (Example 32, marked *, two repeats), read-out: MCT4 lactate efflux pIC50 (SKBR3) (converted). The method, then: Assay plates were lidded and incubated for 4 hours at 37° C. and 5% CO2.
Turning to `Cc1nc2nc(C)c(C[C@@H]3CCN(c4ccc(-c5ccc(CN6CCOCC6)nc5)cn4)C3)c(C)n2n1` [Example 1, (R)-4-((6′-(3-((2,5,7-trimethyl-[1,2,4]triazolo[1,5-a]pyrimidin-6-yl)methyl)pyrrolidin-1-yl)-[3,3′-bipyridin]-6-yl)methyl)morpholine], the IC50 was 0.316 nM. As for `Cc1nc2nc(C)c(C[C@@H]3CCN(c4ccc(-c5cnc(CN6CCOCC6)cn5)nc4)C3)c(C)n2n1` [Example 7, (R)-4-((5-(5-(3-((2,5,7-trimethyl-[1,2,4]triazolo[1,5-a]pyrimidin-6-yl)methyl)pyrrolidin-1-yl)pyridin-2-yl)pyrazin-2-yl)methyl)morpholine], the figure is 0.316 nM. Consider `COc1cc(CN2CCN(C)CC2)ccc1-c1ncc(N2CC[C@@H](Cc3c(C)nc4nc(C)nn4c3C)C2)cn1` [Example 12, (R)-6-((1-(2-(2-methoxy-4-((4-methylpiperazin-1-yl)methyl)phenyl)pyrimidin-5-yl)pyrrolidin-3-yl)methyl)-2,5,7-trimethyl-[1,2,4]triazolo[1,5-a]pyrimidine], for which the IC50 is 3.98 nM. For `Cc1nc2nc(C)c(C[C@@H]3CCN(c4cnc(-c5ccc(CN6CCN(C)CC6)cc5C)nc4)C3)c(C)n2n1` [Example 13, (R)-2,5,7-trimethyl-6-((1-(2-(2-methyl-4-((4-methylpiperazin-1-yl)methyl)phenyl)pyrimidin-5-yl)pyrrolidin-3-yl)methyl)-[1,2,4]triazolo[1,5-a]pyrimidine], the IC50 was 2.51 nM. Turning to `Cc1nc2nc(C)c(C[C@@H]3CCN(c4cnc(-c5ccc(CN6C[C@@H](C)N[C@@H](C)C6)cc5)nc4)C3)c(C)n2n1` [Example 14, 6-(((R)-1-(2-(4-(((3R,5S)-3,5-dimethylpiperazin-1-yl)methyl)phenyl)pyrimidin-5-yl)pyrrolidin-3-yl)methyl)-2,5,7-trimethyl-[1,2,4]triazolo[1,5-a]pyrimidine], the IC50 is 2 nM. As for `Cc1nc2nc(C)c(C[C@@H]3CCN(c4cnc(-c5ccc(CN6CCN(CC(=O)N(C)C)CC6)cc5)nc4)C3)c(C)n2n1` [Example 15, (R)—N,N-dimethyl-2-(4-(4-(5-(3-((2,5,7-trimethyl-[1,2,4]triazolo[1,5-a]pyrimidin-6-yl)methyl)pyrrolidin-1-yl)pyrimidin-2-yl)benzyl)piperazin-1-yl)acetamide], the figure is 1 nM; as for `CC(=O)N1CCN(Cc2ccc(-c3ncc(N4CC[C@@H](Cc5c(C)nc6nc(C)nn6c5C)C4)cn3)cc2)CC1` [Example 17, (R)-1-(4-(4-(5-(3-((2,5,7-trimethyl-[1,2,4]triazolo[1,5-a]pyrimidin-6-yl)methyl)pyrrolidin-1-yl)pyrimidin-2-yl)benzyl)piperazin-1-yl)ethanone], 0.251 nM. On to `COCCN1CCN(Cc2ccc(-c3ncc(N4CC[C@@H](Cc5c(C)nc6nc(C)nn6c5C)C4)cn3)cc2)CC1` [Example 18, (R)-6-((1-(2-(4-((4-(2-methoxyethyl)piperazin-1-yl)methyl)phenyl)pyrimidin-5-yl)pyrrolidin-3-yl)methyl)-2,5,7-trimethyl-[1,2,4]triazolo[1,5-a]pyrimidine], for which the IC50 was 0.631 nM. Turning to `Cc1nc2nc(C)c(C[C@@H]3CCN(c4ccc(-c5cnc(CN6CCN(C)CC6)nc5)cc4)C3)c(C)n2n1` [Example 22, (R)-2,5,7-trimethyl-6-((1-(4-(2-((4-methylpiperazin-1-yl)methyl)pyrimidin-5-yl)phenyl)pyrrolidin-3-yl)methyl)-[1,2,4]triazolo[1,5-a]pyrimidine], the IC50 was 1 nM.

As to `Cc1nc2nc(C)c(C[C@@H]3CCN(c4ccc(-c5ncc(CN6CCN(C)CC6)cn5)cc4)C3)c(C)n2n1` [Example 25, (R)-2,5,7-trimethyl-6-((1-(4-(5-((4-methylpiperazin-1-yl)methyl)pyrimidin-2-yl)phenyl)pyrrolidin-3-yl)methyl)-[1,2,4]triazolo[1,5-a]pyrimidine], the IC50 is 0.794 nM.

`Cc1nc2nc(C)c(C[C@@H]3CCN(c4ccc(-c5cnc(CN6CCOCC6)nc5)cc4)C3)c(C)n2n1` [Example 28, (R)-4-((5-(4-(3-((2,5,7-trimethyl-[1,2,4]triazolo[1,5-a]pyrimidin-6-yl)methyl)pyrrolidin-1-yl)phenyl)pyrimidin-2-yl)methyl)morpholine]: the IC50 is 0.251 nM.

For `Cc1nc2nc(C)c(C[C@@H]3CCN(c4cnc(-c5ccc(CN6C[C@@H](C)N(C)[C@@H](C)C6)cc5)cn4)C3)c(C)n2n1` [Example 32, 2,5,7-trimethyl-6-(((R)-1-(5-(4-(((3R,5S)-3,4,5-trimethylpiperazin-1-yl)methyl)phenyl)pyrazin-2-yl)pyrrolidin-3-yl)methyl)-[1,2,4]triazolo[1,5-a]pyrimidine], the IC50 is 1.26 nM. As for `Cc1nc2nc(C)c(C[C@@H]3CCN(c4cnc(-c5ccc(CN6CCN(C)[C@H](C)C6)cc5)cn4)C3)c(C)n2n1` [Example 33, 6-(((R)-1-(5-(4-(((R)-3,4-dimethylpiperazin-1-yl)methyl)phenyl)pyrazin-2-yl)pyrrolidin-3-yl)methyl)-2,5,7-trimethyl-[1,2,4]triazolo[1,5-a]pyrimidine], the figure is 2.51 nM; as for `Cc1nc2nc(C)c(C[C@@H]3CCN(c4cnc(-c5ccc(CN6CCN(C)CC6)cn5)cn4)C3)c(C)n2n1` [Example 39, (R)-2,5,7-trimethyl-6-((1-(5-(5-((4-methylpiperazin-1-yl)methyl)pyridin-2-yl)pyrazin-2-yl)pyrrolidin-3-yl)methyl)-[1,2,4]triazolo[1,5-a]pyrimidine], 2.51 nM; as for `Cc1nc2nc(C)c(C[C@@H]3CCN(c4cnc(-c5ccc(CN6CCC(CO)CC6)cc5)cn4)C3)c(C)n2n1` [Example 44, {1-[4-(5-{(3R)-3-[(2,5,7-trimethyl[1,2,4]triazolo[1,5-a]pyrimidin-6-yl)methyl]pyrrolidin-1-yl}pyrazin-2-yl)benzyl]piperidin-4-yl}methanol], 0.631 nM. Take `Cc1nc2nc(C)c(C[C@@H]3CCN(c4cnc(-c5ccc(CN6CCS(=O)(=O)CC6)cc5)cn4)C3)c(C)n2n1` [Example 45, 6-{[(3R)-1-(5-{4-[(1,1-dioxidothiomorpholin-4-yl)methyl]phenyl}pyrazin-2-yl)pyrrolidin-3-yl]methyl}-2,5,7-trimethyl[1,2,4]triazolo[1,5-a]pyrimidine]: the IC50 was 0.2 nM. As for `Cc1nc2nc(C)c(C[C@@H]3CCN(c4cnc(-c5ccc(CN6CCC(S(C)(=O)=O)CC6)cc5)cn4)C3)c(C)n2n1` [Example 46, 2,5,7-trimethyl-6-({(3R)-1-[5-(4-{[4-(methylsulfonyl)piperidin-1-yl]methyl}phenyl)pyrazin-2-yl]pyrrolidin-3-yl}methyl)[1,2,4]triazolo[1,5-a]pyrimidine], the figure is 0.2 nM; as for `CC(=O)N1CCCN(Cc2ccc(-c3cnc(N4CC[C@@H](Cc5c(C)nc6nc(C)nn6c5C)C4)cn3)cc2)CC1` [Example 79, 1-[4-[[4-[5-[(3R)-3-[(2,5,7-trimethyl-[1,2,4]triazolo[1,5-a]pyrimidin-6-yl)methyl]pyrrolidin-1-yl]pyrazin-2-yl]phenyl]methyl]-1,4-diazepan-1-yl]ethanone], 0.316 nM. Consider `Cc1nc2nc(C)c(C[C@@H]3CCN(c4cnc(-c5ccc(CN6CCCN(C)CC6)cc5)cn4)C3)c(C)n2n1` [Example 83, (R)-2,5,7-trimethyl-6-((1-(5-(4-((4-methyl-1,4-diazepan-1-yl)methyl)phenyl)pyrazin-2-yl)pyrrolidin-3-yl)methyl)-[1,2,4]triazolo[1,5-a]pyrimidine], for which the IC50 was 0.794 nM.
